The results in this text go back to ChEMBL document CHEMBL5316345, “Discovery of the Potent and Selective MC4R Antagonist PF-07258669 for the Potential Treatment of Appetite Loss” (J Med Chem, 2023).

Series [1] deals with Cytochrome P450 3A (Homo sapiens, UniProt P08684+P20815+Q9HB55+P24462). The series can be described thus: Time dependent inhibition of CYP3A (unknown origin) at 10 uM relative to control. Type of series: ADME, protein assay.
Series [2] in a line: Octanol-water distribution coefficient, logD of the compound at pH 7.4 by RP-HPLC analysis. The series is classed as physicochemical.
The nature of series [3]: Lipophilicity, logD of compound at pH 7.4 by shake flask method. Type of series: physicochemical. The conditions noted are these: buffer.
Series [4] deals with Melanocortin receptor 5 (Homo sapiens, UniProt P33032). The series can be described thus: Displacement of [125I]-NDP-alpha-MSH from human MC5R expressed in CHO cells measured for 2 hrs by microbeta counter analysis. The series is classed as cell-based.
Series [5] has as its target Adrenocorticotropic hormone receptor (Homo sapiens) (UniProt Q01718). Kind of series: Agonist activity at human MC2R expressed in CHO cells assessed as increase in alpha-MSH induced cAMP level measured for 60 mins. Type of series: functional, cell-based.
Series [6] can be described thus: Volume of distribution at steady state in Beagle dog at 1 mg/kg, iv measured at 0.033 to 24 hrs by LC-MS/MS analysis. The series is classed as ADME, organism-based, Canis lupus familiaris. The conditions noted are these: in vivo, time 0.033-24 hrs, read-out: Vdss.
The nature of series [7]: Half life in Wistar Han rat at 1 mg/kg, iv measured at 0.033 to 24 hrs by LC-MS/MS analysis. The series is classed as ADME, organism-based. The conditions noted are these: in vivo, time 0.033-24 hrs.
A short description of series [8]: Half life in Wistar Han rat at 5 mg/kg, po measured at 0.083 to 24 hrs by LC-MS/MS analysis. Type of series: ADME, organism-based. To be noted: in vivo, time 0.083-24 hrs.
Series [9] is described as follows: Half life in Beagle dog at 1 mg/kg, iv measured at 0.033 to 24 hrs by LC-MS/MS analysis. Type of series: ADME, organism-based, Canis lupus familiaris. To be noted: in vivo, time 0.033-24 hrs.
Series [10] is described as follows: Tmax in Beagle dog at 1 mg/kg, po measured at 0.25 to 24 hrs by LC-MS/MS analysis. Type of series: ADME, organism-based, Canis lupus familiaris. The conditions noted are these: in vivo, time 0.25-24 hrs.
A short description of series [11]: Cmax in Wistar Han rat at 5 mg/kg, po measured at 0.083 to 24 hrs by LC-MS/MS analysis. Details: dose 5 mg/kg, time upper 24 hrs, time lower 0.083 hrs, route po. The series is classed as ADME, organism-based. The conditions noted are these: in vivo.
A short description of series [12]: AUC (0 to infinity) in Beagle dog at 1 mg/kg, po measured at 0.25 to 24 hrs by LC-MS/MS analysis. Type of series: ADME, organism-based, Canis lupus familiaris. Also noted: time upper 24 hrs, time lower 0.25 hrs, dose 1 mg/kg, route po. To be noted: in vivo.
The nature of series [13]: Oral bioavailability in Beagle dog at 1 mg/kg measured at 0.25 to 24 hrs by LC-MS/MS analysis. The series is classed as ADME, organism-based, Canis lupus familiaris. To be noted: in vivo, time 0.25-24 hrs.
Series [14] concerns Mus musculus. The series can be described thus: Effect on body weight in anorexia/cachexia mouse model assessed as cumulative body weight gain at 3 mg/kg, po administered twice a day for 20 days and measured at 1 to 21 days. The series is classed as functional. The conditions noted are these: time 1-21 day.
Series [15] deals with Mus musculus. Kind of series: Effect on body weight in anorexia/cachexia mouse model assessed as reduction in cumulative food intake at 3 mg/kg, po administered twice a day for 20 days and measured at 1 to 21 days. Type of series: functional. Also noted: scale not given: the % may be the effect or the level left. To be noted: time 20 day.
Series [16] addresses cGMP-specific 3',5'-cyclic phosphodiesterase (Homo sapiens, UniProt O76074). The series can be described thus: Inhibition of human PDE5A1.
Series [17] deals with 3',5'-cyclic-AMP phosphodiesterase 7B (Homo sapiens, UniProt Q9NP56). The series can be described thus: Inhibition of human PDE7B.
Series [18] deals with High affinity cGMP-specific 3',5'-cyclic phosphodiesterase 9A (Homo sapiens, UniProt O76083). Kind of series: Inhibition of human PDE9A1.
In series [19] the target is Sodium channel protein type 5 subunit alpha (Homo sapiens, UniProt Q14524). Kind of series: Inhibition of recombinant human Nav1.5 expressed in CHO cells by whole cell voltage clamp electrophysiology recording. Type of series: cell-based.

SMILES strings stand for the structures. The source made the active and inactive calls. The calls are words filed in the database; no cut-off is given here.

Broadly, the logD is lipophilicity at a set pH, counting ionised and neutral species. Usually Ki stands for the equilibrium dissociation constant of an inhibitor or competing ligand from its target. Usually half-life stands for how long it takes for the measured level to halve. A word on the Tmax: it is the time from dosing to the highest level. The Cmax is the highest concentration seen after dosing. As usually defined, the AUC is the area under the concentration-time curve, a measure of exposure. In general, IC50 refers to the concentration that inhibits the measured activity by half.

Sequence of 3',5'-cyclic-AMP phosphodiesterase 7B (Q9NP56 whole entry): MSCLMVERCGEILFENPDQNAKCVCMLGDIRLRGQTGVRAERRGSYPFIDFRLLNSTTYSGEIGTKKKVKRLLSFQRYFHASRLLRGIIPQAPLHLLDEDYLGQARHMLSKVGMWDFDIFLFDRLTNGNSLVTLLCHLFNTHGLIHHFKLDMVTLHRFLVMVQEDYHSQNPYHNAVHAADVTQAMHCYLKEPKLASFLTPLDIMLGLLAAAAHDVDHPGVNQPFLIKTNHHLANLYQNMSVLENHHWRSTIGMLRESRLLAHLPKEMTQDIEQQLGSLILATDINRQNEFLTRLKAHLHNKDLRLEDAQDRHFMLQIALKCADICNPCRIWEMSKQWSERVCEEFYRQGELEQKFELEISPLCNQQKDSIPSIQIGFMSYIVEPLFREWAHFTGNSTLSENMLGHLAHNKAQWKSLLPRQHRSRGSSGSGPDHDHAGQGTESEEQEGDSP
Sequence of High affinity cGMP-specific 3',5'-cyclic phosphodiesterase 9A (O76083 whole entry): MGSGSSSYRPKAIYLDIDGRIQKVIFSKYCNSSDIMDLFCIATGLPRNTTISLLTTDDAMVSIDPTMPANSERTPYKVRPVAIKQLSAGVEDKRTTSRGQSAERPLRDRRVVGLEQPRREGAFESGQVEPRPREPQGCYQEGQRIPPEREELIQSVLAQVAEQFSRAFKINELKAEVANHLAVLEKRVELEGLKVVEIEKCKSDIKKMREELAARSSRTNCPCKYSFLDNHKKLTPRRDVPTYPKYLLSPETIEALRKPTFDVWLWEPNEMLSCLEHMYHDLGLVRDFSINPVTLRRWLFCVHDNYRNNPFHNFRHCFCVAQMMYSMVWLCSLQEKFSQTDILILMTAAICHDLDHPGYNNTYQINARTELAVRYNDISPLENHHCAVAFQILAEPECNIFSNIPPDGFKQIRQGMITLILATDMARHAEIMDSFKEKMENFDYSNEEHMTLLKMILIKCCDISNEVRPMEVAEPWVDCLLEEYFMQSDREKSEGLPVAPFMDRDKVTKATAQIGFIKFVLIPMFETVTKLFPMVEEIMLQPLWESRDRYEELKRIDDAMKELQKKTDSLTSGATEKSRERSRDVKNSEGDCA
Sequence of Sodium channel protein type 5 subunit alpha (Q14524 whole entry): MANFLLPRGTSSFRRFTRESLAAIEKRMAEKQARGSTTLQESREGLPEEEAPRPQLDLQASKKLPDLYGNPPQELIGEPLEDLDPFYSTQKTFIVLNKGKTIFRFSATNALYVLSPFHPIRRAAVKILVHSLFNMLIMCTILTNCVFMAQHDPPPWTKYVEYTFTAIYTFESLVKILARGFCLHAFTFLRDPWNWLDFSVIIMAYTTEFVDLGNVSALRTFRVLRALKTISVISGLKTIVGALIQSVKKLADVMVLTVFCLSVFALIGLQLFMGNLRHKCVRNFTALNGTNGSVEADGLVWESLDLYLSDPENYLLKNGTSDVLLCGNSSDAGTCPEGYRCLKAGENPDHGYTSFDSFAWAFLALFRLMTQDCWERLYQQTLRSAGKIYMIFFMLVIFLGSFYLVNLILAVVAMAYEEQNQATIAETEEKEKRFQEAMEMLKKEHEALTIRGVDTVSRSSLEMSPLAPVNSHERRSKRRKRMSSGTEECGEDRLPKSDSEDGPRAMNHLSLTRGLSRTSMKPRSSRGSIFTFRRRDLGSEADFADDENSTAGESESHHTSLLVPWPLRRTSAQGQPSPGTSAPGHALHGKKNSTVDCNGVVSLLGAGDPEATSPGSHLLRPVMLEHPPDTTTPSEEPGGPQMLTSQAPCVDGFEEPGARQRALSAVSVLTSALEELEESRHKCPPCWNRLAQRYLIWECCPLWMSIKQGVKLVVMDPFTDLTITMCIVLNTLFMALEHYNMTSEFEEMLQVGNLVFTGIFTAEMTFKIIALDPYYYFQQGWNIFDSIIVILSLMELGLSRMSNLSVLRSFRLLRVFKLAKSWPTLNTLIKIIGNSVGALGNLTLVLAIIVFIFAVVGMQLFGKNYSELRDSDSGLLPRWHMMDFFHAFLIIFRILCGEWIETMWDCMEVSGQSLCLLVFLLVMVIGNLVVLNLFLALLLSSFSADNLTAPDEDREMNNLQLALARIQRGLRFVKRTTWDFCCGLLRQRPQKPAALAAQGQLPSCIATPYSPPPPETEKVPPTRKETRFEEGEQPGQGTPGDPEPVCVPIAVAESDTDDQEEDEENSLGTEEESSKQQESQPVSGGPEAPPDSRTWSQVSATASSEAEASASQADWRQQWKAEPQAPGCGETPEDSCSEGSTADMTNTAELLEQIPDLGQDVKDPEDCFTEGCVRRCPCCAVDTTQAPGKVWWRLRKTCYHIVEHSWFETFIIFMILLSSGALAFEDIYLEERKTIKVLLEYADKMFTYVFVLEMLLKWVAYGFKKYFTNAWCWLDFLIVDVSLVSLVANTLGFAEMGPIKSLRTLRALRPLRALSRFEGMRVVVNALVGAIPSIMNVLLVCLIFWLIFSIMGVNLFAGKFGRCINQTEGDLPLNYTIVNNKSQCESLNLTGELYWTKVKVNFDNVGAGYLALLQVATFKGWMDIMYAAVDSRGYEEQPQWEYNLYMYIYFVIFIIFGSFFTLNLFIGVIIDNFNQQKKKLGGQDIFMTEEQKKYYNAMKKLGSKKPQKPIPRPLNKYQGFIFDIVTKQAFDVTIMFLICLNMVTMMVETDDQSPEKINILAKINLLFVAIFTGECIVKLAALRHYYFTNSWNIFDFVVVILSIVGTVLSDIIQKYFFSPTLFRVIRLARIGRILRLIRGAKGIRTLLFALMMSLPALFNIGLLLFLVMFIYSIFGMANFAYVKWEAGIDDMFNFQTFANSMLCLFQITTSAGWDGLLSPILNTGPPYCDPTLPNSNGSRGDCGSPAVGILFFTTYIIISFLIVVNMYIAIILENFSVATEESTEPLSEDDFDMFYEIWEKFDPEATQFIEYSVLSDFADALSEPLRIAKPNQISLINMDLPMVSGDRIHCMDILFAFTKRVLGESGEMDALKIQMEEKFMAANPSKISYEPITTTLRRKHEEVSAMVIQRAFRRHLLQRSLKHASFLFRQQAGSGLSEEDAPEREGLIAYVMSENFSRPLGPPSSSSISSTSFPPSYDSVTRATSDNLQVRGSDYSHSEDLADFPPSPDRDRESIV
Sequence of Melanocortin receptor 5 (P33032 whole entry): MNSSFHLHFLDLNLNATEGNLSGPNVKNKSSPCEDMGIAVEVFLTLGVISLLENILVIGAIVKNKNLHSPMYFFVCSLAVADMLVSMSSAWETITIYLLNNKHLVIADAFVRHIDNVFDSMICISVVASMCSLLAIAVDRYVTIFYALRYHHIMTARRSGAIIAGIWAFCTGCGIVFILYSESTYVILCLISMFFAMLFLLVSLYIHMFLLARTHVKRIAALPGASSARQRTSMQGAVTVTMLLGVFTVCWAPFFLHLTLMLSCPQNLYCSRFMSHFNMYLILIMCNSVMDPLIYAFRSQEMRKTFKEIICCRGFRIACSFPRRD
Sequence of Adrenocorticotropic hormone receptor (Homo sapiens) (Q01718 whole entry): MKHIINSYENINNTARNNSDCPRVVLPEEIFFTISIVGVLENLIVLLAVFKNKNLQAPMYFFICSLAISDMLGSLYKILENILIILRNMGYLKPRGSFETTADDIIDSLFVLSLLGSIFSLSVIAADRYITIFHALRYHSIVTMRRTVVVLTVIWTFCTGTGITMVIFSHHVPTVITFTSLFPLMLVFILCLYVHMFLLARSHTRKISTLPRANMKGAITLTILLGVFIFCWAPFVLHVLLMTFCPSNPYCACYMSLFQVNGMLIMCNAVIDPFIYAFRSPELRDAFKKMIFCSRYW

Take `COc1cc([C@@H](C)C(=O)N2CC[C@@]3(COc4cc(-c5ncccn5)c(C)nc4N3)C2)c(F)cn1`: in series [1], the K stood at 0.09 min⁻¹. Also, the logD in [2] and in series [3] was 2.6 in each case. Further, in [4], the affinity, expressed as Ki, was 0.84 µM. Also, the result in [5] was inactive. For the same compound, the Vd in series [6] stood at 1.3 L/kg. The half-life in series [7] is 60 min; in series [8], 58.8 min; in series [9], 138 min. The Tmax in [10] was 22.8 min. This compound also gave a Cmax in series [11] of 600 ng/mL. Besides, the AUC in [12] was 4610 ng·h/mL. This compound also registered a F in series [13] of 93%. Besides, the Activity in series [14] was 9%; in [15], 40%. In addition, the IC50 in [16] is above 50 µM; in series [17] it was above 50 µM; in [18] it was above 50 µM; in series [19], above 100 µM.
